Data on 20 compounds can be found in patent US12312359B2 (Vitae Pharmaceuticals, LLC, priority 2016, dated 2025).

For assay [1], the target named is T1, biotinylated wild-type menin and MLL-AF9 fusion protein (menin/MLL binding) (Homo sapiens, UniProt O00255).
T1 construct: made in house; host or cells: menin: E. coli; MLL-AF9-FLAG: HEK293 cells, used as cleared lysate
T1 sequence (O00255 1-610): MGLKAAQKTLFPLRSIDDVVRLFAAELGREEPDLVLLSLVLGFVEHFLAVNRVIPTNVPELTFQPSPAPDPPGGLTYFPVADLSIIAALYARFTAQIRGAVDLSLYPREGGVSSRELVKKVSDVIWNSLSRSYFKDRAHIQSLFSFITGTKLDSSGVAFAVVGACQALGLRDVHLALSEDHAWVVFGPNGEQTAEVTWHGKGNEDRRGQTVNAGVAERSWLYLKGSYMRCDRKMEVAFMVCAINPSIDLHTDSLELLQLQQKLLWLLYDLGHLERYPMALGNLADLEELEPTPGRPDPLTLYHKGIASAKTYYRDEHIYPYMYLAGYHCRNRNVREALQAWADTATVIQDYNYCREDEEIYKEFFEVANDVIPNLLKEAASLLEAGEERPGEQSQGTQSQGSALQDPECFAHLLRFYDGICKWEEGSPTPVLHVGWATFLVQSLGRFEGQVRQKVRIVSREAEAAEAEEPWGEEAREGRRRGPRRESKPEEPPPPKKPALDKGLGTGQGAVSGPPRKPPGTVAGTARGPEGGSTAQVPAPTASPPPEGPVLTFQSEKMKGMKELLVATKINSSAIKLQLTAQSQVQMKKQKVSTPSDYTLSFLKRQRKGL
Description: Assay 1: menin/MLL binding AlphaLISA assay, wild-type menin. The following applies: Table 30; column head does not say wild-type or mutated menin. The method in brief: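 Compound was preincubated 30 min at room temperature with biotinylated menin (5 nM) and MLL-AF9-FLAG lysate from HEK293 cells, pH 7.4 buffer with 5% DMSO and DTT. Bead-based Alpha signal after 60 min with streptavidin donor and anti-FLAG acceptor beads; four-parameter logistic fit gave IC50.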

Assay [2] has as its system human acute monocytic leukemia cell line MV-4-11. Nature of the assay: Assay 2: cell proliferation assay (ATP quantitation, CellTiter-Glo), MV-4-11. Format: cell-based. The following applies: MV-4-11 cells. The method in brief:
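Read-out is CellTiter-Glo luminescence quantifying ATP. Compound exposure lasted 72 h at 37° C., 5% CO2, with 1.67×10^4 MV-4-11 cells per well in 10% FBS medium, alongside HL-60 toxicity-control cells.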

For the compound `CC(C)Cc1cc(F)ccc1Oc1cncnc1N1CCC2(CCN(Cc3ccc4[nH]c(=O)[nH]c4c3)C2)C1` (stereo not shown) [Example 236, 5-((7-(5-(4-fluoro-2-isobutylphenoxy)pyrimidin-4-yl)-2,7-diazaspiro[4.4]nonan-2-yl)methyl)-1,3-dihydro-2H-benzo[d]imidazol-2-one], the concentration for half-maximal inhibition (IC50) in assay [1] is less than 100 nM. Besides, the half-maximal effective concentration (EC50) in assay [2] (Homo sapiens, MV4-11, 72 h) lay in the range of 100 to 1000 nM.

Take `CC(C)N(C(=O)c1cc(F)ccc1Oc1cncnc1N1CCC2(CCN(Cc3ccc4c(c3)[nH]c(=O)n4CCO)C2)C1)C(C)C` (single isomer, unassigned) [Example 3B, 5-fluoro-2-((4-(7-((1-(2-hydroxyethyl)-2-oxo-2,3-dihydro-1H-benzo[d]imidazol-5-yl)methyl)-2,7-diazaspiro[4.4]nonan-2-yl)pyrimidin-5-yl)oxy)-N,N-diisopropylbenzamide]: the IC50 in assay [1] was less than 100 nM. In assay [2] (72 h), this compound showed a 50% effective concentration (EC50) of less than 100 nM.

`CCN(C(=O)c1cc(F)ccc1Oc1cncnc1N1CCC2(CCN(Cc3ccc4[nH]c(=O)[nH]c4c3)C2)C1)C(C)C` (racemic) [Example 2, N-ethyl-5-fluoro-N-isopropyl-2-((4-(7-((2-oxo-2,3-dihydro-1H-benzo[d]imidazol-5-yl)methyl)-2,7-diazaspiro[4.4]nonan-2-yl)pyrimidin-5-yl)oxy)benzamide]: in assay [1], the concentration for half-maximal inhibition (IC50) was less than 100 nM. For the same compound, the EC50 in assay [2] (Homo sapiens, MV4-11, 72 h) was less than 100 nM.

In turn, `CC(C)c1ncncc1-c1cc(F)ccc1Oc1cncnc1N1CC2(CC(N3CCc4cc(F)ccc4C3)CO2)C1` (stereo not shown) [Example 139, 2-(5-(4-fluoro-2-(4-isopropylpyrimidin-5-yl)phenoxy)pyrimidin-4-yl)-7-(6-fluoro-3,4-dihydroisoquinolin-2(1H)-yl)-5-oxa-2-azaspiro[3.4]octane] yielded an IC50 in assay [1] of less than 100 nM. The EC50 in assay [2] (Homo sapiens, MV4-11, 72 h) was in the range of 100 to 1000 nM.

In assay [1], `CC(C)N(CCO)C(=O)c1cc(F)ccc1Oc1cncnc1N1CCC2(CCN(Cc3ccc4[nH]c(=O)[nH]c4c3)C2)C1` (stereo not shown) [Example 5, 5-fluoro-N-(2-hydroxyethyl)-N-isopropyl-2-((4-(7-((2-oxo-2,3-dihydro-1H-benzo[d]imidazol-5-yl)methyl)-2,7-diazaspiro[4.4]nonan-2-yl)pyrimidin-5-yl)oxy)benzamide] yielded a half-maximal inhibitory concentration (IC50) of less than 100 nM. For the same compound, the EC50 in assay [2] (Homo sapiens, MV4-11, 72 h) was less than 100 nM.

As to `CC(C)C(=O)N(C)c1cc(F)ccc1Oc1cncnc1N1CCC2(CCN(Cc3ccc4[nH]c(=O)[nH]c4c3)C2)C1` (stereo not shown) [Example 76, N-(5-fluoro-2-((4-(7-((2-oxo-2,3-dihydro-1H-benzo[d]imidazol-5-yl)methyl)-2,7-diazaspiro[4.4]nonan-2-yl)pyrimidin-5-yl)oxy)phenyl)-N-methylisobutyramide], the half-maximal inhibitory concentration (IC50) in assay [1] is less than 100 nM. The same compound showed an EC50 in assay [2] (Homo sapiens, MV4-11, 72 h) of less than 100 nM.

Turning to `CC(C)c1ccccc1-c1cc(F)ccc1Oc1cncnc1N1CC2(CC(NCc3ccc(C#N)cc3)CO2)C1` (stereo not shown) [Example 19, 4-(((2-(5-((5-fluoro-2′-isopropyl-[1,1′-biphenyl]-2-yl)oxy)pyrimidin-4-yl)-5-oxa-2-azaspiro[3.4]octan-7-yl)amino)methyl)benzonitrile], in assay [1], the IC50 was less than 100 nM. In assay [2] (Homo sapiens, MV4-11, 72 h), this compound had a concentration giving a half-maximal response (EC50) of 100 to 1000 nM.

In assay [1], `CC1(C)C(=O)Nc2cc(CN3CCC4(CCN(c5ncncc5Oc5ccc(F)cc5-c5cccnc5C5CC5)C4)C3)ccc21` (stereo not shown) [Example 179, 6-((7-(5-(2-(2-cyclopropylpyridin-3-yl)-4-fluorophenoxy)pyrimidin-4-yl)-2,7-diazaspiro[4.4]nonan-2-yl)methyl)-3,3-dimethylindolin-2-one] gave an IC50 of less than 100 nM. Moreover, the 50% effective concentration (EC50) in assay [2] (Homo sapiens, MV4-11, 72 h) is less than 100 nM.

As to `CC(=O)N[C@H]1CC[C@@H](CN2CCC3(CCN(c4ncncc4Oc4ccc(F)cc4-c4ccc(C#N)cc4C4CC4)C3)C2)CC1` (stereo partly shown) [Example 190A, N-((1s,4s)-4-((7-(5-((4′-cyano-2′-cyclopropyl-5-fluoro-[1,1′-biphenyl]-2-yl)oxy)pyrimidin-4-yl)-2,7-diazaspiro[4.4]nonan-2-yl)methyl)cyclohexyl) acetamide], in assay [1], the IC50 is less than 100 nM. In assay [2] (Homo sapiens, MV4-11, 72 h), this compound returned an EC50 of 100 to 1000 nM.

In assay [1], `CC(C)C1CCC(=O)N1c1cc(F)ccc1Oc1cncnc1N1CCC2(CCN(Cc3ccc4[nH]c(=O)[nH]c4c3)C2)C1` (stereo not shown) [Example 218, 5-((7-(5-(4-fluoro-2-(2-isopropyl-5-oxopyrrolidin-1-yl)phenoxy)pyrimidin-4-yl)-2,7-diazaspiro[4.4]nonan-2-yl)methyl)-1,3-dihydro-2H-benzo[d]imidazol-2-one] had an IC50 of less than 100 nM. In assay [2] (Homo sapiens, MV4-11, 72 h), this compound showed a concentration for a half-maximal effect (EC50) of no less than 1000 nM.

As to `CC(C)N(C(=O)c1cc(F)ccc1Oc1cncnc1N1CCC2(CCN(Cc3ccc4c(c3)[nH]c(=O)n4CCO)C2)C1)C(C)C` (single isomer, unassigned) [Example 3A, 5-fluoro-2-((4-(7-((1-(2-hydroxyethyl)-2-oxo-2,3-dihydro-1H-benzo[d]imidazol-5-yl)methyl)-2,7-diazaspiro[4.4]nonan-2-yl)pyrimidin-5-yl)oxy)-N,N-diisopropylbenzamide], in assay [1], the IC50 was less than 100 nM. For the same compound, the concentration for a half-maximal effect (EC50) in assay [2] (Homo sapiens, MV4-11, 72 h) was less than 100 nM.

Compound `CC(C)N(C(=O)c1cc(F)ccc1Oc1cncnc1N1CC2(CN(CC[C@H]3CC[C@H](NC(=O)OC(C)(C)C)CC3)C2)C1)C(C)C` [Example 115, tert-butyl ((1r,4r)-4-(2-(6-(5-(2-(diisopropylcarbamoyl)-4-fluorophenoxy)pyrimidin-4-yl)-2,6-diazaspiro[3.3]heptan-2-yl)ethyl)cyclohexyl) carbamate] showed a 50% inhibitory concentration (IC50) in assay [1] of less than 100 nM. In addition, the concentration giving a half-maximal response (EC50) in assay [2] (Homo sapiens, MV4-11, 72 h) is less than 100 nM.

`CC(C)(C)OC(=O)N[C@H]1CC[C@H](CCN2CC3(C2)CN(c2ncncc2Oc2ccc(F)cc2-c2cccnc2C2CC2)C3)CC1` [Example 88, tert-butyl ((1r,4r)-4-(2-(6-(5-(2-(2-cyclopropylpyridin-3-yl)-4-fluorophenoxy)pyrimidin-4-yl)-2,6-diazaspiro[3.3]heptan-2-yl)ethyl)cyclohexyl) carbamate] came in with a concentration for half-maximal inhibition (IC50) in assay [1] of less than 100 nM. In addition, the EC50 in assay [2] (Homo sapiens, MV4-11, 72 h) was less than 100 nM.

Consider `O=c1[nH]c2ccc(CN3CCC4(CCN(c5ncncc5Oc5ccc(F)cc5OCc5ccccc5)C4)C3)cc2[nH]1` (stereo not shown) [Example 208, 5-((7-(5-(2-(benzyloxy)-4-fluorophenoxy)pyrimidin-4-yl)-2,7-diazaspiro [4.4]nonan-2-yl)methyl)-1,3-dihydro-2H-benzo[d]imidazol-2-one], for which, in assay [1], the IC50 was less than 100 nM. In assay [2] (Homo sapiens, MV4-11, 72 h), this compound showed an EC50 of no less than 1000 nM.

In assay [1], `CC(C)N(C)C(=O)c1cc(F)ccc1Oc1cncnc1N1CCC2(CCN(Cc3ccc4[nH]c(=O)[nH]c4c3)C2)C1` (stereo not shown) [Example 183, 5-fluoro-N-isopropyl-N-methyl-2-((4-(7-((2-oxo-2,3-dihydro-1H-benzo[d]imidazol-5-yl)methyl)-2,7-diazaspiro[4.4]nonan-2-yl)pyrimidin-5-yl)oxy)benzamide] yielded an IC50 of less than 100 nM. Besides, the EC50 in assay [2] (Homo sapiens, MV4-11, 72 h) is less than 100 nM.

For `CC(C)c1ccccc1-c1cc(F)ccc1Nc1cncnc1N1CC2(CN(CC3CCOCC3)C2)C1` [Example 15, N-(5-fluoro-2′-isopropyl-[1,1′-biphenyl]-2-yl)-4-(6-((tetrahydro-2H-pyran-4-yl)methyl)-2,6-diazaspiro[3.3]heptan-2-yl)pyrimidin-5-amine], the IC50 in assay [1] was less than 100 nM. Besides, in assay [2] (Homo sapiens, MV4-11, 72 h), the half-maximal effective concentration (EC50) was 100 to 1000 nM.

With `COC(=O)Nc1cccc(CN2CCC3(CCN(c4ncncc4Oc4ccc(F)cc4-c4ccc(C#N)cc4C4CC4)C3)C2)c1` (stereo not shown) [Example 170, methyl (3-((7-(5-((4′-cyano-2′-cyclopropyl-5-fluoro-[1,1′-biphenyl]-2-yl)oxy)pyrimidin-4-yl)-2,7-diazaspiro[4.4]nonan-2-yl)methyl)phenyl) carbamate], the IC50 in assay [1] is less than 100 nM. Moreover, in assay [2] (Homo sapiens, MV4-11, 72 h), the EC50 was 100 to 1000 nM.

On to `NC(=O)c1ccc2c(CN3CCC4(CCN(c5ncncc5Oc5ccc(F)cc5OCC5CC5)C4)C3)c[nH]c2c1` (stereo not shown) [Example 200, 3-((7-(5-(2-(cyclopropylmethoxy)-4-fluorophenoxy)pyrimidin-4-yl)-2,7-diazaspiro[4.4]nonan-2-yl)methyl)-1H-indole-6-carboxamide], for which the IC50 in assay [1] was less than 100 nM. Moreover, the EC50 in assay [2] (Homo sapiens, MV4-11, 72 h) is 100 to 1000 nM.

In turn, `CC(C)N(C(=O)c1cc(F)ccc1Oc1cncnc1N1CCC2(CC(Cc3ccc(F)cc3)N(CCO)C2)C1)C(C)C` (single isomer, unassigned) [Example 26B, 5-fluoro-2-((4-(8-(4-fluorobenzyl)-7-(2-hydroxyethyl)-2,7-diazaspiro[4.4]nonan-2-yl)pyrimidin-5-yl)oxy)-N,N-diisopropylbenzamide] came in with a 50% inhibitory concentration (IC50) in assay [1] of less than 100 nM. In assay [2] (72 h), the EC50 is no less than 1000 nM.

The compound `CC(C)N(C(=O)c1cc(F)ccc1Oc1cncnc1N1CC2(CN(CC3CCOCC3)C2)C1)C(C)C` [Example 112, 5-fluoro-N,N-diisopropyl-2-((4-(6-((tetrahydro-2H-pyran-4-yl)methyl)-2,6-diazaspiro[3.3]heptan-2-yl)pyrimidin-5-yl)oxy)benzamide] showed a half-maximal inhibitory concentration (IC50) in assay [1] of less than 100 nM. For the same compound, in assay [2] (Homo sapiens, MV4-11, 72 h), the concentration for a half-maximal effect (EC50) was less than 100 nM.

By IC50 is commonly meant the point on the concentration scale where inhibition reaches its midpoint. A higher IC50 goes with weaker potency in that assay. By EC50 is commonly meant the concentration needed to bring the measured effect to its halfway point. A low value points to greater potency.
